Data published in patent US20120309734A1, “COMBRETASTATIN DERIVATIVES AND USES THEREFOR” (priority 2009, published 2012).
Like-named read-outs stand apart in the source and are kept apart here.

Key:
[1] = molecular target: T1, purified human liver cathepsin-L (Homo sapiens, UniProt P07711); experiment: Fluorogenic cathepsin-L activity kit; assay type: biochemical; details: FIG. 2
T1 construct: uses purified human liver cathepsin-L as the source of the cathepsin; purchased calbiochem; host or cells: human liver
T1 sequence (P07711 114-333): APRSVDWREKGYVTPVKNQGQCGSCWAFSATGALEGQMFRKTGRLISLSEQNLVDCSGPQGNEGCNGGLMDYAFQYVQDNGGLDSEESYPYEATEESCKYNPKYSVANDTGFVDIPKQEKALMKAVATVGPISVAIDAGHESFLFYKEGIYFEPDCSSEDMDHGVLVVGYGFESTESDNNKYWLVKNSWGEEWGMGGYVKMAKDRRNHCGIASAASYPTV
Method: Cathepsin L activity was measured using the fluorogenic cathepsin-L activity kit from calbiochem which uses purified human liver cathepsin-L as the source of the cathepsin. […] Values represent the mean+/−range of two separate experiments each carried out in duplicate.

[2] = test system: human promyelocytic leukaemia HL-60 cells; experiment: MTT cell viability assay; assay type: cell-based; details: read-out: Inhibition of cell viability (IC50 value, nM) HL-60
[3] = test system: MCF-7 breast cancer cell line; experiment: Antiproliferation study, MTT cell viability assay; assay type: cell-based; details: Homo sapiens
Method: All assays were performed in triplicate for the determination of mean values reported. Compounds were assayed as the free bases isolated from reaction. The human breast tumour cell line MCF-7 was cultured in Eagles minimum essential medium in a […] atmosphere with 10% fetal bovine serum, 2 mM L-glutamine and 100 μg/mL penicillin/streptomycin. The medium was supplemented with 1% non-essential amino acids. MDA-MB-231 cells were maintained in Dulbecco's Modified Eagle's medium (DMEM), supplemented with 10% (v/v) Fetal bovine serum, 2 mM L-glutamine and 100 μg/mL penicillin/streptomycin (complete medium). Cells were trypsinised and seeded at a density of 2.5×10^4 cells/ml in a 96-well plate and incubated at 37° C., […] atmosphere for 24 h. […] Control wells contained the equivalent volume of the vehicle ethanol (1% v/v). The culture medium was then removed and the cells washed with 100 μL phosphate buffered saline (PBS) and 50 μL MTT added, to reach a final concentration of 1 mg/mL MTT added. Cells were incubated for 2 h in darkness at 37° C. At this point solubilization was begun through the addition of 200 μL DMSO and the cells maintained at room temperature in darkness for 20 min to ensure thorough colour diffusion before reading the absorbance. The absorbance value of control cells (no added compound) was set to 100% cell viability and from this graphs of absorbance versus cell density per well were prepared to assess cell viability and from these, graphs of percentage cell viability versus concentration of subject compound added were drawn.

[4] = test system: normal mouse mammary epithelial cells; experiment: Viability of normal mammary epithelial cells; assay type: cell-based
Method: The maximum toxicity elicited by these drugs on normal cells at a concentration of 10 nM was only 8% (see Table 4).

[5] = test system: normal mouse mammary epithelial cells; experiment: Viability of normal mammary epithelial cells; assay type: cell-based; details: 72 hr treatment
[6] = test system: human chronic myeloid leukaemia K562 cells; experiment: MTT cell viability assay; assay type: cell-based; details: read-out: Inhibition of cell viability (IC50 value, nM) K562
MDA-MB-231 cells [7] = experiment: Antiproliferation study, MTT cell viability assay; assay type: cell-based; details: Homo sapiens, read-out: antiproliferative effects, MDA-MB-231
Method: All assays were performed in triplicate for the determination of mean values reported. Compounds were assayed as the free bases isolated from reaction. The human breast tumour cell line MCF-7 was cultured in Eagles minimum essential medium in a […] atmosphere with 10% fetal bovine serum, 2 mM L-glutamine and 100 μg/mL penicillin/streptomycin. The medium was supplemented with 1% non-essential amino acids. MDA-MB-231 cells were maintained in Dulbecco's Modified Eagle's medium (DMEM), supplemented with 10% (v/v) Fetal bovine serum, 2 mM L-glutamine and 100 μg/mL penicillin/streptomycin (complete medium). […] At this point solubilization was begun through the addition of 200 μL DMSO and the cells maintained at room temperature in darkness for 20 min to ensure thorough colour diffusion before reading the absorbance. The absorbance value of control cells (no added compound) was set to 100% cell viability and from this graphs of absorbance versus cell density per well were prepared to assess cell viability and from these, graphs of percentage cell viability versus concentration of subject compound added were drawn.
(§1) MDA-MB-231 cells were treated with vehicle (1% (v/v) ethanol) or 10 nM, 100 nM, 1 μM and 10 μM (final concentrations) of 25. Cells were harvested after 24, 48 or 72 hours and analysed for DNA content by flow cytometry.

[8] = test system: purified bovine brain tubulin; experiment: Tubulin polymerization assay (turbidity); assay type: biochemical
Method: The effect of compounds on the assembly of purified bovine brain tubulin was determined spectrophotometrically by monitoring the change in turbidity. This assay used a 96-well plate format with 300 μg of >99% purified bovine brain tubulin in each well. […] 10 μl of 10× strength of each compound tested was pipetted into a half area 96-well plate prewarmed to 37° C. A 100 μl volume of tubulin was then pipetted into the prewarmed plate. Samples were mixed well and tubulin assembly was monitored at an A340 nm at 30 second intervals for 60 minutes at 37° C. in a Spectromax 340PC spectrophotometer (Molecular Devices).

MDA-MB-231 cells [9] = experiment: Cell cycle analysis by flow cytometry (PI); assay type: cell-based, human
Method: The MDA-MB-231 cells were seeded at a density of 18×10^4 cells/mL in 5 mL of medium (900,000 cells per flask). After 24 hours the control was treated with 50 μL of ethanol (1% v/v) and selected compound dosed at range 10 nM-10 μM (final concentration, 1% v/v). They were incubated for 72 hours. Following incubation, the cells were removed from the bottom of the flask by scraping and the medium placed in a 20 mL sterilin. They were centrifuged for 10 minutes at 600×g. The supernatant was decanted and the pellet resuspended in 1 mL of ice-cold PBS; cells were again centrifuged for 10 minutes at 600×g. The supernatant was decanted and the pellet resuspended in 200 μL of ice-cold phosphate buffer saline (PBS). Subsequently ice-cold 70% ethanol (2 mL) was slowly added to the tube as it was gently vortexed. The cells were kept at −20° C. for at least one hour. After the fixation 5 μL of FBS was added to the samples. The cells were harvested by centrifugation at 600×g for 10 mins. The ethanol was carefully removed and the pellet resuspended in 400 μL of PBS and transferred to FACS microtubes. A 25 μL aliquot of RNase A (1 mg/mL) and 75 μL of propidium iodide (PI) 1 mg/mL, a DNA binding fluorescent dye, was added to each tube. The samples were wrapped in aluminium foil and incubated for a minimum of 30 min at 37° C. The samples were read at 488 nm using FACscalibur flow cytometer from Becton Dickinson. The FACS data for 10,000 cells was analysed using the Macintosh-based application Cellquest and the data was stored as frequency histograms.
as §1

[10] = MCF7, 72 h, antiproliferative activity, MTT, 72 h, read-out: IC50 (μM) MCF-7 cell line

COc1ccc(C2C(c3ccc(O)cc3)C(=O)N2c2cc(OC)c(OC)c(OC)c2)cc1O (stereo not drawn) [Compound 14, 4-(3-Hydroxy-4-methoxy-phenyl)-3-(4-hydroxy-phenyl)-1-(3,4,5-trimethoxy-phenyl)-azetidin-2-one]
melting point: 152 °C
inhibition of cathepsin-L activity [1]: inhibited cathepsin-L in the nanomolar range
IC50 [2]: 0.4 nM
IC50 [3, 10]: 0.0008 µM
IC50 ([3]; MCF7, MTT cell viability assay, read-out: Inhibition of cell viability (IC50 value, nM) MCF-7): 0.0008 to 0.0031 µM
Percent viability of normal mammary epithelial cells compared to control ([4]; 10 nM, 72 hr treatment): 90%
effects on normal mammary epithelial cells ([4]; up to 10 μM): minimal effects
Percent viability of normal mammary epithelial cells compared to control ([5]; 1 nM): 93.8%
Percent viability of normal mammary epithelial cells compared to control ([5]; 100 nM): 73.2%
Percent viability of normal mammary epithelial cells compared to control ([5]; 1 μM): 75.2%
Percent viability of normal mammary epithelial cells compared to control ([5]; 10 μM): 74.8%
IC50 [6]: 0.9 nM

COc1ccc(C2CC(=O)N2c2cc(OC)c(OC)c(OC)c2)cc1O (stereo not drawn) [Compound 25]
IC50 [3, 10]: 0.017 µM
IC50 ([3]; MCF7, read-out: antiproliferative effects, MCF-7): 0.017 µM
IC50 (MDA-MB-231 cells [7]): 54 nM
X-fold inhibition of tubulin polymerisation (Vmax ± SEM) ([8]; 1 μM): 1.1 ± 0.2 fold
X-fold inhibition of tubulin polymerisation (Vmax ± SEM) ([8]; 10 μM): 10.2 ± 2.3 fold
G1 (%) (MDA-MB-231 cells [9]; 10 nM, 24 hours): 48.33 ± 4.18%
G2/M (%) (MDA-MB-231 cells [9]; 10 nM, 24 hours): 25.61 ± 0.98%
M5 (%) (MDA-MB-231 cells [9]; 10 nM, 24 hours): 2.84 ± 0.59%
S (%) (MDA-MB-231 cells [9]; 10 nM, 24 hours): 12.55 ± 2.54%
Sub-G1 (%) (MDA-MB-231 cells [9]; 10 nM, 24 hours): 3.72 ± 1.97%
G1 (%) (MDA-MB-231 cells [9]; 10 nM, 48 hours): 45.25 ± 7.37%
G2/M (%) (MDA-MB-231 cells [9]; 10 nM, 48 hours): 23.71 ± 7.81%
M5 (%) (MDA-MB-231 cells [9]; 10 nM, 48 hours): 6.10 ± 0.62%
S (%) (MDA-MB-231 cells [9]; 10 nM, 48 hours): 13.36 ± 2.58%
Sub-G1 (%) (MDA-MB-231 cells [9]; 10 nM, 48 hours): 11.57 ± 3.06%
G1 (%) (MDA-MB-231 cells [9]; 10 nM, 72 hours): 48.24 ± 2.79%
G2/M (%) (MDA-MB-231 cells [9]; 10 nM, 72 hours): 17.68 ± 4.58%
M5 (%) (MDA-MB-231 cells [9]; 10 nM, 72 hours): 3.55 ± 1.57%
S (%) (MDA-MB-231 cells [9]; 10 nM, 72 hours): 9.08 ± 2.32%
Sub-G1 (%) (MDA-MB-231 cells [9]; 10 nM, 72 hours): 15.25 ± 2.03%
G1 (%) (MDA-MB-231 cells [9]; 100 nM, 24 hours): 18.95 ± 6.60%
G2/M (%) (MDA-MB-231 cells [9]; 100 nM, 24 hours): 59.43 ± 3.13%
M5 (%) (MDA-MB-231 cells [9]; 100 nM, 24 hours): 4.87 ± 4.39%
S (%) (MDA-MB-231 cells [9]; 100 nM, 24 hours): 6.05 ± 0.38%
Sub-G1 (%) (MDA-MB-231 cells [9]; 100 nM, 24 hours): 4.88 ± 0.85%
G1 (%) (MDA-MB-231 cells [9]; 100 nM, 48 hours): 10.76 ± 0.34%
G2/M (%) (MDA-MB-231 cells [9]; 100 nM, 48 hours): 36.42 ± 3.42%
M5 (%) (MDA-MB-231 cells [9]; 100 nM, 48 hours): 4.61 ± 0.86%
S (%) (MDA-MB-231 cells [9]; 100 nM, 48 hours): 8.90 ± 0.85%
Sub-G1 (%) (MDA-MB-231 cells [9]; 100 nM, 48 hours): 37.50 ± 0.71%
G1 (%) (MDA-MB-231 cells [9]; 100 nM, 72 hours): 13.90 ± 3.62%
G2/M (%) (MDA-MB-231 cells [9]; 100 nM, 72 hours): 12.62 ± 9.22%
M5 (%) (MDA-MB-231 cells [9]; 100 nM, 72 hours): 2.99 ± 1.89%
S (%) (MDA-MB-231 cells [9]; 100 nM, 72 hours): 5.34 ± 4.32%
Sub-G1 (%) (MDA-MB-231 cells [9]; 100 nM, 72 hours): 63.10 ± 20.06%
G1 (%) (MDA-MB-231 cells [9]; 1 μM, 24 hours): 19.22 ± 6.19%
G2/M (%) (MDA-MB-231 cells [9]; 1 μM, 24 hours): 63.16 ± 4.86%
M5 (%) (MDA-MB-231 cells [9]; 1 μM, 24 hours): 4.31 ± 3.17%
S (%) (MDA-MB-231 cells [9]; 1 μM, 24 hours): 6.01 ± 2.90%
Sub-G1 (%) (MDA-MB-231 cells [9]; 1 μM, 24 hours): 7.08 ± 4.20%
G1 (%) (MDA-MB-231 cells [9]; 1 μM, 72 hours): 14.29 ± 2.20%
G2/M (%) (MDA-MB-231 cells [9]; 1 μM, 72 hours): 21.24 ± 12.05%
M5 (%) (MDA-MB-231 cells [9]; 1 μM, 72 hours): 5.97 ± 4.71%
S (%) (MDA-MB-231 cells [9]; 1 μM, 72 hours): 7.76 ± 0.58%
Sub-G1 (%) (MDA-MB-231 cells [9]; 1 μM, 72 hours): 50.53 ± 14.78%
G1 (%) (MDA-MB-231 cells [9]; 10 μM, 24 hours): 29.30 ± 5.95%
G2/M (%) (MDA-MB-231 cells [9]; 10 μM, 24 hours): 55.36 ± 1.49%
M5 (%) (MDA-MB-231 cells [9]; 10 μM, 24 hours): 3.85 ± 3.83%
S (%) (MDA-MB-231 cells [9]; 10 μM, 24 hours): 3.72 ± 0.71%
Sub-G1 (%) (MDA-MB-231 cells [9]; 10 μM, 24 hours): 3.18 ± 0.25%
G1 (%) (MDA-MB-231 cells [9]; 10 μM, 48 hours): 14.44 ± 2.28%
G2/M (%) (MDA-MB-231 cells [9]; 10 μM, 48 hours): 27.25 ± 4.45%
M5 (%) (MDA-MB-231 cells [9]; 10 μM, 48 hours): 2.28 ± 0.06%
S (%) (MDA-MB-231 cells [9]; 10 μM, 48 hours): 4.47 ± 0.06%
Sub-G1 (%) (MDA-MB-231 cells [9]; 10 μM, 48 hours): 51.27 ± 6.31%
G1 (%) (MDA-MB-231 cells [9]; 10 μM, 72 hours): 17.14 ± 3.31%
G2/M (%) (MDA-MB-231 cells [9]; 10 μM, 72 hours): 21.81 ± 12.40%
M5 (%) (MDA-MB-231 cells [9]; 10 μM, 72 hours): 3.38 ± 2.84%
S (%) (MDA-MB-231 cells [9]; 10 μM, 72 hours): 9.66 ± 1.84%
Sub-G1 (%) (MDA-MB-231 cells [9]; 10 μM, 72 hours): 46.49 ± 17.49%
